Reference: article PMC9576799, “Discovery of small molecule inhibitors that effectively disrupt IQGAP1-Cdc42 interaction in breast cancer cells” (Scientific Reports, 2022)
Where two headings read alike, the source gives them in different places.

Experiments:
MCF7 cells = test: IncuCyte proliferation assay, MCF7; assay type: cell-based, human; settings: 72 h; for effect on proliferation: up to 50 µM
Protocol: (§1) MDA-MB-231 and MCF7 cells were grown to confluence, detached using trypsin–EDTA cell dissociation buffer (Gibco 12604013) and counted. Cells were plated into 384-well, clear-bottom, black, tissue culture treated plates (Corning 3683) using an automatic dispenser (Thermo Multidrop Combi SMART) at densities of 2000 cells/10 µL/well for MDA-MB-231 cells and 4000 cells/10 µL/well for MCF7 cells in DMEM supplemented with 5% FBS. After 4 h incubation at 37 °C with 5% CO2, the growth medium was replaced with 10 µL medium containing compounds at 16-point 1:2 serial dilutions with the final highest concentration of 50 µM for each compound. All samples containing compounds were plated in triplicate. Cells in the first column of the plate were treated with 0.5% DMSO as control. The plates were placed into an Incucyte SX5 Live-cell imaging system (Sartorius) and phase images were taken at 6-h intervals for 72 h with 10X objective lens. The growth medium containing compounds or DMSO was replenished after 24 h. The images were analyzed, and the growth curves generated by the Incucyte software 2020A using the basic analyzer mode.

MDA-MB-231 cells [1] = test: IncuCyte proliferation assay, MDA-MB-231; assay type: cell-based, human; settings: 72 h; for effect on proliferation: up to 50 µM
Protocol: as §1

[2] = test system: endogenous IQGAP1/Cdc42 interaction; test: Immunoprecipitation of endogenous IQGAP1 and co-precipitated Cdc42 in HEK293 cell lysates; assay type: binding; settings: 0.2-50 µM
Protocol: Each compound was added to lysates from HEK293 cells at a final concentration of 50 µM and endogenous IQGAP1 was immunoprecipitated. DMSO alone was used as the negative control (100% binding).
HEK293 cells were plated in 10-cm dishes to reach 80% confluence. The following day, the cells were washed with ice-cold phosphate-buffered saline (PBS) and lysed with 500 µl of Buffer A (50 mM Tris–HCl, pH 7.4, 150 mM NaCl, and 1% Triton X-100) supplemented with complete protease and phosphatase inhibitors (Roche, Mannheim, Germany). Lysates were subjected to two rounds of sonication for 10 s each, and insoluble material was precipitated by centrifugation at 13,000 xg for 10 min at 4 °C. Supernatants were precleared with protein A-Sepharose beads for 1 h. DMSO (vehicle) or different concentrations of the compounds (0.2, 0.6, 1, 5, 16 or 50 µM) were added to equal amounts of protein lysates for 30 min. Protein A-Sepharose beads and anti-IQGAP1 polyclonal antibodies were then added for 2 h at 4 °C. Anti-rabbit IgG antibodies were used as the immunoprecipitation control. Samples were washed five times with Buffer A, resolved by SDS-PAGE and transferred to polyvinylidene fluoride (PVDF) membranes (Millipore Corp). Membranes were probed with anti-IQGAP1 and anti-Cdc42 antibodies. After secondary antibody detection, Western blots were imaged using a LI-COR Odyssey infrared imaging system (LI-COR, USA). Western blot quantification and analysis was conducted using Image Studio™ Lite (LI-COR Biosciences).

GST-Cdc42-Q61L-His = target: T1, GST-Cdc42-Q61L-His (Homo sapiens, UniProt P60953, Q61L); test: HTRF counter-screen with double-tagged Cdc42; settings: 100 nM GST-Cdc42-Q61L-His
T1 construct: His (hexa-histidine in the Results); made in house; host or cells: Escherichia coli BL-21
T1 sequence (P60953 2-191 isoform P60953-1 Q61L): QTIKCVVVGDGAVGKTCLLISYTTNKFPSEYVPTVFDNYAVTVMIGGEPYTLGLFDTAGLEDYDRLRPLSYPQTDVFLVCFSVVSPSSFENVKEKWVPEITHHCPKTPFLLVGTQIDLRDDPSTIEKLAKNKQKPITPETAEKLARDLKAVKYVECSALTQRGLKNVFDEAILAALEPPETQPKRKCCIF
Protocol: Two different HTRF counter-screens were used to identify false positive hits. The two interacting proteins GST-IQGAP1-C and His-Cdc42-Q61L were replaced with His-tagged GST or Cdc42-Q61L containing GST at the N-terminus and His at the C-terminus (GST-Cdc42-Q61L-His).
First, GST-Cdc42-Q61L-His was titrated in parallel with the pre-mixed His-Cdc42-Q61L and GST-IQGAP1-C to comparatively match the signal level to the signal of the primary HTRF assay. We chose 100 nM GST-Cdc42-Q61L-His protein as the final concentration for the counter-screen. The assay protocol is outlined in Supplementary Table S2 online. Briefly, 4 μL/well of […] diluted in binding buffer was dispensed to the plates, followed by pinning 23 nL/well of selected hit compounds from the primary screening and addition of 2 μL/well premixed HTRF antibodies. After 3 h, 1 μL/well of 2.8 M potassium fluoride was added to the assay and the fluorescence signal was read on the Envision instrument. For controls, we used pre-mixed proteins GST-IQGAP1-C and His-Cdc42-Q61L (primary assay’s regular conditions) as IC100, and […] at 1.5 nM final concentration as IC0.
Supplementary Table S2: Counter-screening HTRF protocol.
Step Parameter Value Description
1a Protein 4 µL 100 nM His-GST (final concentration), diluted in
1b Controls 4 µL Column 2: GST-IQGAP1-C protein only [1.5nM] final
Column 3: pre-mixed proteins (regular assay
2 Compounds 23 nL Selected compounds were pin-transferred from DMSO
HTRF α-His-XL (5 ng/µL, 3X working concentration) +
3 antibodies 2 µL α-GST-K (0.7 ng/µL 3X working concentration),
pre-mix mixed in binding buffer
4 Time 3 Incubation (ambient temperature)
5 Reagent 1 µL 2.8 M KF (7x)
6 Detector HTRF Envision plate reader (excitation: 340 nm, emission: […]

MDA-MB-231 cells [3] = test: Scratch wound migration assay; assay type: cell-based, human; settings: for cell migration maximum efficiency / EC50: scratch wound, 72 h; for EC50: read-out: cell migration EC50
Protocol: MDA-MB-231 cells were grown to confluence and plated into a 96-well clear plate (Sartorius 4379) at 30,000 cells/100 µL/well in DMEM supplemented with 5% FBS. Cells were incubated at 37 °C with 5% CO2 overnight. Even wounds were created using a 96-pin wound device (Sartorius 4493) following the manufacturer’s protocol. Medium was then aspirated, and the cells were washed once with PBS pH 7.4 before adding 100 µL/well of fresh growth medium. Then 100 µL/well of growth medium containing compounds at an 8-point 1:2 titration dispensed into the cell plate resulting a final highest concentration of 50 µM for each compound. 0.5% DMSO was used as control. All samples were plated in triplicate. The plate was placed into an Incucyte SX5 Live-cell imaging system and phase images were taken in 2-h intervals for 72 h using the scratch wound setting. Medium was aspirated and replaced with a fresh medium containing compounds or DMSO after 24 h. The images were analyzed, and the wound density curves generated by the Incucyte software 2020A using the scratch wound analysis option.

His-Cdc42 = target: T2, His-Cdc42 (Homo sapiens, UniProt P60953, Q61L); test: Microscale thermophoresis (MST); assay type: binding; settings: for effect on thermophoretic motion of Cdc42 / Kd: MST; for effect on thermophoretic motion of Cdc42: 500 µM to 244 nM; for Kd: 100 nM labeled His-Cdc42, n = 3
T2 construct: made in house; host or cells: E. coli
T2 sequence (P60953 1-184 isoform P60953-1 Q61L): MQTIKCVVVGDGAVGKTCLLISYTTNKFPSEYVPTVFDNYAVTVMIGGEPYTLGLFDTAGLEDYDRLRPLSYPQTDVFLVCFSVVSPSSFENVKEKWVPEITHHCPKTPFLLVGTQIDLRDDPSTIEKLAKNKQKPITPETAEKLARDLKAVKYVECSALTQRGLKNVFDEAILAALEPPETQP
Protocol: Two-fold serial dilutions of compounds were first prepared in DMSO, then further diluted in PBS containing 0.05% Tween-20. […] Samples were loaded into Monolith™ standard capillaries and measured using Monolith NT.115 (Nanotemper Technologies) with 50% excitation power and 50% MST power, with laser on and off times of 30 s and 5 s, respectively. The Kd values were calculated by evaluating the thermophoresis and T-Jump signals using MO.Affinity Analysis software (Nanotemper Technologies). All experiments were conducted in three biological replicates.

[4] = Parallel artificial membrane permeation assay (PAMPA); assay type: in vitro ADME; settings: for Papp: PAMPA, read-out: PAMPA passive permeability

Row | SMILES | EC50 (MCF7 cells; confluency) [µM] | effect on proliferation (MCF7 cells) | EC50 (MDA-MB-231 cells [1]; confluency) [µM] | effect on proliferation (MDA-MB-231 cells [1]) | effect on Cdc42 binding to IQGAP1 in immunoprecipitation [2] | activity in double-tagged Cdc42 counter-screen (GST-Cdc42-Q61L-His) | effect on cell shape (MDA-MB-231 cells [3]; 50 µM (Fig. S3)) | cell migration maximum efficiency (MDA-MB-231 cells [3]) [%] | EC50 (MDA-MB-231 cells [3]) [µM] | concentration above which precipitates formed (His-Cdc42; MST samples, PBS containing 0.05% Tween-20) | effect on thermophoretic motion of Cdc42 (His-Cdc42) | PAMPA passive permeability [4] [×10⁻⁶ cm/s] | EC50 (GST-Cdc42-Q61L-His; read-out: EC50 in double-tagged Cdc42 counter-screen) [µM] | inhibition at 50 µM (MDA-MB-231 cells [3]; Homo sapiens, 50 μM, the highest concentration used, read-out: inhibition of cell migration) [%] | Kd (His-Cdc42; read-out: dissociation constant (Kd) for Cdc42) [µM] | Papp [4] [×10⁻⁶ cm/s] | EC50 (GST-Cdc42-Q61L-His) [µM] | EC50 (MDA-MB-231 cells [3]; Homo sapiens) [µM] | Kd (His-Cdc42) [µM]
1 | CCN(CC)CCn1c2ccccc2c2nc3ccc([N+](=O)[O-])cc3cc21 [MLS000332963] | 6.54 | dose-dependent inhibitory effect | 3.01 | dose-dependent inhibitory effect | reduced the binding substantially | inactive | flatter and spread out more on the plastic | 39 | 2.7 | above 62.5 µM | did not affect the thermophoretic motion of Cdc42 | 675 |  |  |  |  |  |  | 
2 | CCN1CCN(c2ncc3c(n2)CCN(Cc2cc(Br)cs2)C3)CC1 [NCGC00131308] |  | dose-dependent inhibitory effect |  | dose-dependent inhibitory effect | reduced the binding substantially |  |  |  |  |  |  |  | 4.47 | 57.7 ± 7.2 | 28.1 | 77 |  |  | 
3 | CCc1ccccc1Nc1ncnc2c1cnn2-c1ccc(Cl)cc1 [NCGC00138812] |  | dose-dependent inhibitory effect |  | dose-dependent inhibitory effect | reduced the binding substantially |  |  | 20 |  |  |  |  |  |  |  | 177 | 6.31 | 12.9 | 96.2
4 | Cc1cccc(NC(=O)c2c(NC(=O)C(F)(F)F)sc3c2CCCCC3)c1 [NCGC00098561] |  |  |  |  | reduced the binding substantially | not active |  |  |  |  | did not affect the thermophoretic motion of Cdc42 |  |  |  |  |  |  |  | 
